From article PMC11204923, “Marine Cytotoxin Santacruzamate A Derivatives as Potent HDAC1-3 Inhibitors and Their Synergistic Anti-Leukemia Effects with Venetoclax” (Marine Drugs, 2024) come the findings set out here.

One may read the IC50 as the concentration needed to halve the response being measured.

The target in series [1] is T1, HDAC8 (Homo sapiens, UniProt Q9BY41).
T1 construct: purchased BPS Bioscience
T1 sequence (Q9BY41 1-377): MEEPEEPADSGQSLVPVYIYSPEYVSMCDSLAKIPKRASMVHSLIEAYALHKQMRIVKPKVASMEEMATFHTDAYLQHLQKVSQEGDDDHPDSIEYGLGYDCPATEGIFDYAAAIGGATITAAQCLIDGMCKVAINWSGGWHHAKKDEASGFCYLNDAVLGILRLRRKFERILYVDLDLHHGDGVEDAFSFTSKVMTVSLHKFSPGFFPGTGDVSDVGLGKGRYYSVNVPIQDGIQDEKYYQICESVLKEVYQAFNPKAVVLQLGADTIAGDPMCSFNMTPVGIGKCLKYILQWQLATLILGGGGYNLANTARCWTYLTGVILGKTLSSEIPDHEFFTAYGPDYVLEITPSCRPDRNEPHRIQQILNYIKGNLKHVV
Nature of the series: In vitro HDAC inhibition fluorescence assay, HDAC8. It counts as biochemical. The procedure:
(§1) All of the HDAC enzymes were purchased from BPS Bioscience. In vitro HDAC inhibition assays were conducted as previously described. In brief, 20 μL of recombinant HDAC enzyme solution (HDAC1-9, 11) was mixed with various concentrations of the tested compound (20 μL). The mixture was incubated at 37 °C for 1 h, and then, 10 μL of fluorogenic substrate (Boc-Lys (acetyl)-AMC for HDAC1, 2, 3 and 6; Boc-Lys (trifluoroacetyl)AMC for HDAC4, 5, 7, 8, 9 and 11) was added to achieve a final concentration of 50 μM. After incubation at 37 °C for 2 h, the catalysis was stopped by the addition of 10 μL of developer containing 30 mg/mL trypsin and 6 μM trichostatin A (TSA). Then, 30 min later, the fluorescence intensity was measured using a microplate reader at excitation and emission wavelengths of 360 and 460 nm, respectively. The inhibition ratios were calculated from the fluorescence intensity readings of tested wells relative to those of control wells, and the IC50 curves and values were determined by GraphPad Prism 6.0, using the “log(inhibitor) vs. normalized response-variable slope” function.

Series [2] deals with T2, HDAC9 (Homo sapiens, UniProt Q9UKV0).
T2 construct: purchased BPS Bioscience
Kind of series: In vitro HDAC inhibition fluorescence assay, HDAC9. In kind it is biochemical. The procedure:
as §1

Series [3] relates to MV4-11, THP-1, HL60 and Kasumi-1 cells. Nature of the series: Cell viability assay, four AML cell lines together. In kind it is cell-based. The note with it: 72 h; read-out: IC50 values against four AML cell lines (range). The procedure:
The AML cell lines MV4-11, THP-1, KASUMI-1 and HL-60 were purchased from Procell Life Science & Technology Co., Ltd. (Wuhan, China). THP-1 and KASUMI-1 were cultured in RPMI-1640 complete medium containing 10% fetal bovine serum and 1% penicillin and streptomycin. MV4-11 was cultured in IMDM complete medium containing 10% fetal bovine serum and 1% penicillin and streptomycin. HL-60 was cultured in IMDM complete medium containing 20% fetal bovine serum and 1% penicillin and streptomycin. All cell lines were cultured in an incubator with humidity set at 95%, temperature at 37 °C and 5% CO2.
MV4-11, THP-1, KASUMI-1 and HL-60 cells were plated in 96-well transparent plates (10,000 to 15,000 cells/100 μL) and after incubation overnight, cells were treated with gradient-diluted inhibitors with several concentrations. After the cells were incubated with inhibitors for 72 h, 1 mg/mL of Resazurin (Sigma-Aldrich, Saint Louis, MO, USA) was added (working concentration was 0.1 mg/mL). After incubation at 37 °C for about 3 h, the fluorescence intensity of […] was measured at 560 nm/590 nm (excitation/emission) with a Spectra Max i3 Microplate Reader, and the cell viability was determined. The IC50 curve was drawn using GraphPad Prism 9.5 software.

For series [4], the target named is T3, HDAC4 (Homo sapiens, UniProt P56524).
T3 construct: purchased BPS Bioscience
Nature of the series: In vitro HDAC inhibition fluorescence assay, HDAC4. It counts as biochemical. The procedure: as §1

The nature of series [5]: In vitro stability in rat plasma. The note with it: 37 °C, within 24 h, degradation beginning after about 8 h. In kind it is in vitro ADME. The procedure: Equal samples were collected, and 600 μL acetonitrile was added to quench enzyme reactions. The reaction mixture was swirled for 30 s and then centrifuged at 15,000 rpm at 4 °C for 15 min. The supernatant of each sample was analyzed directly by HPLC (1260 Infinity II, Agilent Technologies, Waldbronn, Germany).

T3 sequence (P56524 whole entry): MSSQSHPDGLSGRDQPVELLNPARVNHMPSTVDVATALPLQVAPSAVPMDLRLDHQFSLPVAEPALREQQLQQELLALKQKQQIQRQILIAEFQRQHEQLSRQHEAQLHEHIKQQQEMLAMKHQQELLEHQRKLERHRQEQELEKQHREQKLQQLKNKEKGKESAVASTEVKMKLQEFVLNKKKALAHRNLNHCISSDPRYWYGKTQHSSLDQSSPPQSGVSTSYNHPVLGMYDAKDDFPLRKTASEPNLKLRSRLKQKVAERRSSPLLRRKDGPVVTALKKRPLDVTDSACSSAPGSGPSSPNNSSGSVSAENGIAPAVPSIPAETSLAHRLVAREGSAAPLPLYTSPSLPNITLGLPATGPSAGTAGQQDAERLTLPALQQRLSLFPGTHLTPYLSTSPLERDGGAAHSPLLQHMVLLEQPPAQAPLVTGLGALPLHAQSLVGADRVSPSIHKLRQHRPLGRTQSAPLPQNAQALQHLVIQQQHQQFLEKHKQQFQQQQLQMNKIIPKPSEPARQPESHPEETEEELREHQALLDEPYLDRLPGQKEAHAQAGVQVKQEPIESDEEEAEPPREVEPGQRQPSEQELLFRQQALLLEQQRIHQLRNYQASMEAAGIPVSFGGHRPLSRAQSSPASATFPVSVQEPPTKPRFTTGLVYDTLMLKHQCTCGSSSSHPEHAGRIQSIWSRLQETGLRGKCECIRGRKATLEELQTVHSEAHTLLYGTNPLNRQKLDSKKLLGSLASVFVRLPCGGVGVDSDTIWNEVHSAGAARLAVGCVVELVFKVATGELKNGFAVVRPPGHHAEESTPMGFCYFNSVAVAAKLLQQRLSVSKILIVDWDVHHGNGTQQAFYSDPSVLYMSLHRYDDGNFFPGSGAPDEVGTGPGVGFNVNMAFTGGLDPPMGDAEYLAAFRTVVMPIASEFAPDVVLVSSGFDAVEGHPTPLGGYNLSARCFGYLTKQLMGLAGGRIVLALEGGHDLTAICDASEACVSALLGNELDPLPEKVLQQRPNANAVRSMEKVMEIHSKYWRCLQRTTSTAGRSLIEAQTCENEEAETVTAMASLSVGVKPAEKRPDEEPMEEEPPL
T2 sequence (Q9UKV0 whole entry): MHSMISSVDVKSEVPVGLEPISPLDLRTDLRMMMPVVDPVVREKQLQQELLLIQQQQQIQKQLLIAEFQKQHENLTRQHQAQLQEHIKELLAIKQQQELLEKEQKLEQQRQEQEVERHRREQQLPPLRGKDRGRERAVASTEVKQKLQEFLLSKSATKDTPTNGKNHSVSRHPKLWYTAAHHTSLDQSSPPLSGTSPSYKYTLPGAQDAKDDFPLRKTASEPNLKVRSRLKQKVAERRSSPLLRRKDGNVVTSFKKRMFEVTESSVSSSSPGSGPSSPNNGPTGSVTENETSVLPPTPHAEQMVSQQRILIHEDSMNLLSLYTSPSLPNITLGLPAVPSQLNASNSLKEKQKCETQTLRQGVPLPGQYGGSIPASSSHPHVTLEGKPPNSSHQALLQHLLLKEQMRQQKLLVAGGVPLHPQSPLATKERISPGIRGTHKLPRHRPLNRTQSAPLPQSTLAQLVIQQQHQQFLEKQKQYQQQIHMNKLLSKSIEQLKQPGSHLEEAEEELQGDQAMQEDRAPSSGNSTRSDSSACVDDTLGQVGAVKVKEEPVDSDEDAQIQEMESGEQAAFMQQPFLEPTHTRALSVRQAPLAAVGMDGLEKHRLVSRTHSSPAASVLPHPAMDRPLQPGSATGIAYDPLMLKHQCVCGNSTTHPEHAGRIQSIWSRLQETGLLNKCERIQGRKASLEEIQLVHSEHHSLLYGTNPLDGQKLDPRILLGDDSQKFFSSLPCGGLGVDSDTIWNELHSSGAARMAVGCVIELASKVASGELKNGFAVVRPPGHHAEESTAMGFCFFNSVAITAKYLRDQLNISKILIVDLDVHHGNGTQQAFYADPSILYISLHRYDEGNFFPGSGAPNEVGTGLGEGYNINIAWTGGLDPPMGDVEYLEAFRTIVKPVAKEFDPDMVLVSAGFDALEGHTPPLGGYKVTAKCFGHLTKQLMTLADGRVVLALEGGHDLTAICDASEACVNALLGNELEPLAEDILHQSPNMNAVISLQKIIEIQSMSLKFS

For `CCCNNC(=O)C=Cc1ccc(CNCCc2ccccc2)cc1` [Compound 25c, 3-(4-((Phenethylamino)methyl)phenyl)-N′-propylacrylohydrazide], the concentration for half-maximal inhibition (IC50) is 4.11 ± 0.63 µM in series [1], greater than 10 µM in series [2], 0.338 to 0.48 µM in series [3] and greater than 10 µM in series [4]. Also, the “degradation in rat plasma” value in series [5] turned out to be 35.60%.
